According to ChEMBL document CHEMBL5346973 (J Med Chem, 2023):
Where a SMILES comes first, the peptide text is derived from it.

How the values were obtained:
[1] = biological target: Neuronal acetylcholine receptor subunit alpha-7 (Rattus norvegicus, UniProt Q05941); assay: Antagonist activity at rat alpha7 nACh receptor expressed in Xenopus oocyte assessed as inhibition of acetylcholine-induced response at -70 mV holding potential by voltage-clamp based electrophysiological assay; assay type: cell-based
Neuronal acetylcholine receptor subunit alpha-7, sequence (Q05941 whole entry): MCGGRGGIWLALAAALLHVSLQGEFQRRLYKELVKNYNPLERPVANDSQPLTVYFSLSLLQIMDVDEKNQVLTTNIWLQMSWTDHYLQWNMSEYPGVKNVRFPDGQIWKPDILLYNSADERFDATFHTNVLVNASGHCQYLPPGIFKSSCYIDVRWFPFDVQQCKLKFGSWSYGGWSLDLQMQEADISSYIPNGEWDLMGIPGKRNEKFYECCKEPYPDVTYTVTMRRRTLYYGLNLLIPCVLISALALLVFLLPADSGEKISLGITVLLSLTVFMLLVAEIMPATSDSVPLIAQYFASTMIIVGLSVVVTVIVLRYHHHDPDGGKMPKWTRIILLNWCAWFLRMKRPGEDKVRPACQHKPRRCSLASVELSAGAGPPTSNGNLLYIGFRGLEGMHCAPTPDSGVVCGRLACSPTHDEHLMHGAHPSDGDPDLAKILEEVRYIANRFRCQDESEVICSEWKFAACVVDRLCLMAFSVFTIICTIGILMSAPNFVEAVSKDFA

[2] = biological target: Nicotinic acetylcholine receptor alpha9/alpha10 (Rattus norvegicus, UniProt P43144+Q9JLB5); assay: Antagonist activity at rat alpha9alpha10 nACh receptor expressed in Xenopus oocyte assessed as inhibition of acetylcholine-induced response at -70 mV holding potential by voltage-clamp based electrophysiological assay; assay type: cell-based
Nicotinic acetylcholine receptor alpha9/alpha10, sequence (P43144 whole entry): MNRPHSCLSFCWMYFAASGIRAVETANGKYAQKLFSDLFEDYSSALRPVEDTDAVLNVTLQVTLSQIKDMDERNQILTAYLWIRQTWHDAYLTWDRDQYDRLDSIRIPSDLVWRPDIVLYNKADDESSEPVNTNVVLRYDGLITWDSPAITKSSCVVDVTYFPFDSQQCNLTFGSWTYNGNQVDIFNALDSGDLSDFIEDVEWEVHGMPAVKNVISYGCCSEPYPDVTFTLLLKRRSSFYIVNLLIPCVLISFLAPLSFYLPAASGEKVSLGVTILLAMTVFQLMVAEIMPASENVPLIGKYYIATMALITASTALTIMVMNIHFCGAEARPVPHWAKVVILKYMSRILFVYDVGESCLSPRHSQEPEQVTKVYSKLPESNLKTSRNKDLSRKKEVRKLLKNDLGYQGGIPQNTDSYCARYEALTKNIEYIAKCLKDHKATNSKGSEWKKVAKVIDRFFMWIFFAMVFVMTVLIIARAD
Nicotinic acetylcholine receptor alpha9/alpha10, sequence (Q9JLB5 whole entry): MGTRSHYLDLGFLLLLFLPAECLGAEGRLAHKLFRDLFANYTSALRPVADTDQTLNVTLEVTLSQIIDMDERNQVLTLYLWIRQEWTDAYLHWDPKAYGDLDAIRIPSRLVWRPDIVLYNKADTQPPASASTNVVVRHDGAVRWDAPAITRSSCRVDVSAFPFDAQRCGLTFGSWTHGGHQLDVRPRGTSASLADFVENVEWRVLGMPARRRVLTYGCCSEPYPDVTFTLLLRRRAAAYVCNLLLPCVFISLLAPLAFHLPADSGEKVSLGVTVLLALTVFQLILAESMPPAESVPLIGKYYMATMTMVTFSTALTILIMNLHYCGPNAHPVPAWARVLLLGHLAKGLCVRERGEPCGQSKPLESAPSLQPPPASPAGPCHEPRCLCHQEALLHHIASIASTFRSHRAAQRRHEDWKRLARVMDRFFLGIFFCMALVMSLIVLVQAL

[3] = Stability of the compound in human serum assessed as compound remaining after 6 hr by UPLC analysis; assay type: ADME, cell-free
[4] = Selectivity ratio of IC50 for human alpha9alpha10 nACh receptor to IC50 for rat alpha9alpha10 nACh receptor
[5] = biological target: Neuronal acetylcholine receptor; alpha9/alpha10 (Homo sapiens, UniProt Q9GZZ6+Q9UGM1); assay: Antagonist activity at human alpha9alpha10 nACh receptor expressed in Xenopus oocyte assessed as inhibition of acetylcholine-induced response at -70 mV holding potential by voltage-clamp based electrophysiological assay; assay type: cell-based
Neuronal acetylcholine receptor; alpha9/alpha10, sequence (Q9UGM1 whole entry): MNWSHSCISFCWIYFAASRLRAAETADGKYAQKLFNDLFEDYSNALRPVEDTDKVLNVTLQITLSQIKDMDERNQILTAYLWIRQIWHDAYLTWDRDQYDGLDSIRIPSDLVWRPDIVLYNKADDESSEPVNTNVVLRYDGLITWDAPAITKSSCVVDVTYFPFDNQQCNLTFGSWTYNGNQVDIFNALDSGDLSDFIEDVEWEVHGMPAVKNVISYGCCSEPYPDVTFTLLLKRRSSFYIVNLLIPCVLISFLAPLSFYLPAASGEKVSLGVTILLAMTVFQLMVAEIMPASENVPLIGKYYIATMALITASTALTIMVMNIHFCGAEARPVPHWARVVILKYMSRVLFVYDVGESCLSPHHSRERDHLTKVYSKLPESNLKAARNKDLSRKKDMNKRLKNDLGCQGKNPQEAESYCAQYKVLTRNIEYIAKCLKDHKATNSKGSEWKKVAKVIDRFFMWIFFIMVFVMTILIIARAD
Neuronal acetylcholine receptor; alpha9/alpha10, sequence (Q9GZZ6 whole entry): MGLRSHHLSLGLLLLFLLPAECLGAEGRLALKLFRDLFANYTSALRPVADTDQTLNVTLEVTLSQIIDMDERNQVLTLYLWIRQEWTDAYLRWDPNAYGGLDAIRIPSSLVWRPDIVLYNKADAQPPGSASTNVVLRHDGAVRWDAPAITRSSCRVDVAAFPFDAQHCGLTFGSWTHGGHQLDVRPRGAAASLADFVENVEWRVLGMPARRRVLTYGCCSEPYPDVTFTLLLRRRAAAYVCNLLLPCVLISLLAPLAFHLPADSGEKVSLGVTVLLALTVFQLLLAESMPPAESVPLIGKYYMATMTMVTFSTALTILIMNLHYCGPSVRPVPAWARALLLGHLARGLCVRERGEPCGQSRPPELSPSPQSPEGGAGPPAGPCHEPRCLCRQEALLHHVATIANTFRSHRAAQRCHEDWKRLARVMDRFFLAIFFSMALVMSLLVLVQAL

Compound	IC50 [1] [nM]	IC50 [2] [nM]	Stability [3]	Ratio IC50 [4]	IC50 [5] [nM]
CC[C@H](C)[C@@H]1NC(=O)[C@H](CCCNC(=N)N)NC(=O)[C@H](CCCNC(=N)N)NC(=O)[C@@H](NC(=O)[C@H](Cc2ccc(O)cc2)NC(=O)[C@H](CCCNC(=N)N)NC(=O)[C@H](C)NC(=O)[C@H](CCCNC(=N)N)NC(=O)[C@H](CCCNC(=N)N)NC(=O)[C@H](CC(=O)O)NC(=O)[C@H](Cc2ccc(O)cc2)NC(=O)[C@@H]2CCCN2C(=O)[C@H](CO)NC(=O)[C@H](CCCNC(=N)N)NC(=O)[C@@H]2CSSC[C@H](NC(=O)[C@@H](N)[C@@H](C)O)C(=O)N[C@@H](CCCNC(=N)N)C(=O)N[C@@H](CO)C(=O)N[C@@H](CO)C(=O)NCC(=O)N[C@@H](CCCNC(=N)N)C(=O)N[C@@H](Cc3ccc(O)cc3)C(=O)N2)CSSC[C@@H](C(=O)N[C@H](C(=O)O)C(C)C)NC(=O)[C@H](C)NC(=O)[C@H](CC(=O)O)NC(=O)[C@H]([C@@H](C)O)NC1=O	4480	27	Stable		
CC[C@H](C)[C@H](NC(=O)[C@H](CCC(=O)O)NC(=O)[C@@H]1CCCN1C(=O)[C@H](Cc1cnc[nH]1)NC(=O)[C@H](CC(=O)O)NC(=O)[C@H](Cc1ccc(O)cc1)NC(=O)[C@H](CC(N)=O)NC(=O)[C@H](CS)NC(=O)[C@H](CCCNC(=N)N)NC(=O)[C@@H]1CCCN1C(=O)[C@H](CC(=O)O)NC(=O)[C@H](CO)NC(=O)[C@H](CS)NC(=O)[C@H](CS)NC(=O)CN)C(=O)N[C@@H](CS)C(N)=O		70		4.6	320
N=C(N)NCCC[C@H](NC(=O)[C@H](CS)NC(=O)[C@H](CCCNC(=N)N)NC(=O)[C@H](Cc1ccc(O)cc1)NC(=O)[C@H](CCCNC(=N)N)NC(=O)[C@H](CS)NC(=O)[C@H](CCCNC(=N)N)NC(=O)[C@@H]1CCCN1C(=O)[C@H](CC(=O)O)NC(=O)[C@H](CO)NC(=O)[C@H](CS)NC(=O)[C@H](CS)NC(=O)CN)C(=O)O		1.5		329	494
CC(C)C[C@H](NC(=O)[C@H](CCC(=O)O)NC(=O)[C@@H]1CCCN1C(=O)[C@H](Cc1cnc[nH]1)NC(=O)[C@H](CC(N)=O)NC(=O)[C@@H](NC(=O)[C@H](CO)NC(=O)[C@H](CS)NC(=O)[C@H](C)NC(=O)[C@@H]1CCCN1C(=O)[C@H](Cc1cnc[nH]1)NC(=O)[C@H](CO)NC(=O)[C@H](CS)NC(=O)[C@H](CS)NC(=O)CN)C(C)C)C(=O)N[C@@H](CS)C(N)=O (H-GCCSHPACSVNHPELC-NH2)		6.9		3.2	22.2
C[C@@H](O)[C@H](NC(=O)[C@H](CS)NC(=O)[C@H](CS)NC(=O)CN)C(=O)N[C@@H](CC(=O)O)C(=O)N1CCC[C@H]1C(=O)N[C@@H](CCCNC(=N)N)C(=O)N[C@@H](CS)C(=O)N[C@@H](CCCNC(=N)N)C(=O)N[C@@H](Cc1ccc(O)c(I)c1)C(=O)N[C@@H](CCC(N)=O)C(=O)N[C@@H](CS)C(=O)N[C@@H](Cc1ccc(O)cc1)C(=O)O		0.9		1.7	1.5
CC(C)[C@H](NC(=O)[C@@H]1CSSC[C@H](NC(=O)[C@H](Cc2ccc(O)cc2)NC(=O)[C@H](CCCNC(=N)N)NC(=O)[C@H](CCCNC(=N)N)NC(=O)[C@H](CCCNC(=N)N)NC(=O)[C@H](CCCNC(=N)N)NC(=O)[C@H](CC(=O)O)NC(=O)[C@H](Cc2ccc(O)cc2)NC(=O)[C@@H]2CCCN2C(=O)[C@H](CO)NC(=O)[C@H](CCCNC(=N)N)NC(=O)[C@@H]2CSSC[C@H](NC(=O)[C@@H](N)[C@@H](C)O)C(=O)N[C@@H](CCCNC(=N)N)C(=O)N[C@@H](CO)C(=O)N[C@@H](CO)C(=O)NCC(=O)N[C@@H](CCCNC(=N)N)C(=O)N[C@@H](Cc3ccc(O)cc3)C(=O)N2)C(=O)N[C@@H](CCCNC(=N)N)C(=O)N[C@@H](CCCNC(=N)N)C(=O)N[C@@H](C)C(=O)N[C@@H]([C@@H](C)O)C(=O)N[C@@H](CC(=O)O)C(=O)N[C@@H](C)C(=O)N1)C(=O)O	640	16			
CC[C@H](C)[C@@H]1NC(=O)[C@H](CCCNC(=N)N)NC(=O)[C@H](CCCNC(=N)N)NC(=O)[C@@H]2CSSC[C@H](NC(=O)[C@H](C)NC(=O)[C@H](CCCNC(=N)N)NC(=O)CNC(=O)[C@H](CO)NC(=O)[C@H](CO)NC(=O)[C@H](CCCNC(=N)N)NC(=O)[C@@H](NC(=O)[C@@H](N)[C@@H](C)O)CSSC[C@@H](C(=O)N[C@H](C(=O)O)C(C)C)NC(=O)[C@H](C)NC(=O)[C@H](CC(=O)O)NC(=O)[C@H]([C@@H](C)O)NC1=O)C(=O)N[C@@H](CCCNC(=N)N)C(=O)N[C@@H](CO)C(=O)N1CCC[C@H]1C(=O)N[C@@H](Cc1ccc(O)cc1)C(=O)N[C@@H](CC(=O)O)C(=O)N[C@@H](CCCNC(=N)N)C(=O)N[C@@H](CCCNC(=N)N)C(=O)N[C@@H](CCCNC(=N)N)C(=O)N[C@@H](CCCNC(=N)N)C(=O)N[C@@H](Cc1ccc(O)cc1)C(=O)N2 (HELM PEPTIDE1{T.C.R.S.S.G.R.A.C.R.S.P.Y.D.R.R.R.R.Y.C.R.R.I.T.D.A.C.V}$PEPTIDE1,PEPTIDE1,2:R3-27:R3|PEPTIDE1,PEPTIDE1,9:R3-20:R3$$$V2.0)	7330	120			
CC[C@H](C)[C@@H]1NC(=O)[C@H](C)NC(=O)[C@H](CCCNC(=N)N)NC(=O)[C@@H](NC(=O)[C@H](Cc2ccc(O)cc2)NC(=O)[C@H](CCCNC(=N)N)NC(=O)[C@H](CCCNC(=N)N)NC(=O)[C@H](CCCNC(=N)N)NC(=O)[C@H](CCCNC(=N)N)NC(=O)[C@H](CC(=O)O)NC(=O)[C@H](Cc2ccc(O)cc2)NC(=O)[C@@H]2CCCN2C(=O)[C@H](CO)NC(=O)[C@H](CCCNC(=N)N)NC(=O)[C@@H]2CSSC[C@H](NC(=O)[C@@H](N)[C@@H](C)O)C(=O)N[C@@H](CCCNC(=N)N)C(=O)N[C@@H](CO)C(=O)N[C@@H](CO)C(=O)NCC(=O)N[C@@H](CCCNC(=N)N)C(=O)N[C@@H](Cc3ccc(O)cc3)C(=O)N2)CSSC[C@@H](C(=O)N[C@H](C(=O)O)C(C)C)NC(=O)[C@H](C)NC(=O)[C@H](CC(=O)O)NC(=O)[C@H]([C@@H](C)O)NC1=O	600	54			
CC[C@H](C)[C@@H]1NC(=O)[C@H](CCCNC(=N)N)NC(=O)[C@H](CCCNC(=N)N)NC(=O)[C@@H](NC(=O)[C@H](Cc2ccc(O)cc2)NC(=O)[C@H](CCCNC(=N)N)NC(=O)[C@H](CCCNC(=N)N)NC(=O)[C@H](CCCNC(=N)N)NC(=O)[C@H](CCCNC(=N)N)NC(=O)[C@H](CC(=O)O)NC(=O)[C@H](Cc2ccc(O)cc2)NC(=O)[C@@H]2CCCN2C(=O)[C@H](C)NC(=O)[C@H](CCCNC(=N)N)NC(=O)[C@@H]2CSSC[C@H](NC(=O)[C@@H](N)[C@@H](C)O)C(=O)N[C@@H](CCCNC(=N)N)C(=O)N[C@@H](CO)C(=O)N[C@@H](CO)C(=O)NCC(=O)N[C@@H](CCCNC(=N)N)C(=O)N[C@@H](Cc3ccc(O)cc3)C(=O)N2)CSSC[C@@H](C(=O)N[C@H](C(=O)O)C(C)C)NC(=O)[C@H](C)NC(=O)[C@H](CC(=O)O)NC(=O)[C@H]([C@@H](C)O)NC1=O (HELM PEPTIDE1{T.C.R.S.S.G.R.Y.C.R.A.P.Y.D.R.R.R.R.Y.C.R.R.I.T.D.A.C.V}$PEPTIDE1,PEPTIDE1,2:R3-9:R3|PEPTIDE1,PEPTIDE1,20:R3-27:R3$$$V2.0)	2060	26			
CC[C@H](C)[C@@H]1NC(=O)[C@H](CCCNC(=N)N)NC(=O)[C@H](CCCNC(=N)N)NC(=O)[C@@H](NC(=O)[C@H](Cc2ccc(O)cc2)NC(=O)[C@H](CCCNC(=N)N)NC(=O)[C@H](CCCNC(=N)N)NC(=O)[C@H](CCCNC(=N)N)NC(=O)[C@H](CCCNC(=N)N)NC(=O)[C@H](CC(=O)O)NC(=O)[C@H](Cc2ccc(O)cc2)NC(=O)[C@@H]2CCCN2C(=O)[C@H](CO)NC(=O)[C@H](CCCNC(=N)N)NC(=O)[C@@H]2CSSC[C@H](NC(=O)[C@@H](N)[C@@H](C)O)C(=O)N[C@@H](CCCNC(=N)N)C(=O)N[C@@H](CO)C(=O)N[C@@H](CO)C(=O)NCC(=O)N[C@@H](C)C(=O)N[C@@H](Cc3ccc(O)cc3)C(=O)N2)CSSC[C@@H](C(=O)N[C@H](C(=O)O)C(C)C)NC(=O)[C@H](C)NC(=O)[C@H](CC(=O)O)NC(=O)[C@H]([C@@H](C)O)NC1=O (HELM PEPTIDE1{T.C.R.S.S.G.A.Y.C.R.S.P.Y.D.R.R.R.R.Y.C.R.R.I.T.D.A.C.V}$PEPTIDE1,PEPTIDE1,2:R3-9:R3|PEPTIDE1,PEPTIDE1,20:R3-27:R3$$$V2.0)	1470	44			
